Results as given in patent US11154565B2, “Process for preparing a stable emulsion comprising one or more avermectins” (GALDERMA HOLDING SA, priority 2015, dated 2021).

Assay: Chemical stability of ivermectin in the composition on storage
Format: physicochemical
Conditions: composition obtained according to the invention

Question: For ivermectin, which “chemical stability of ivermectin” value (stored for 6 months at 40° C.) is on record?
Answer: The value was “chemically stable”.

Question: What about the “chemical stability of ivermectin” value (stored for 12 months at room temperature) of the same substance?
Answer: The value was “chemically stable”.
